The values below come from patent publication US9132118B2, “Taxane analogs for the treatment of brain cancer” (Tapestry Pharmaceuticals, Inc., priority 2007, dated 2015).

The test system of data set [1] is bovine microtubule protein (tubulin plus microtubule associated proteins). Put plainly: In vitro ED50 MT polymerization study (DAPI fluorescence tubulin assay). The class given is biochemical. As to conditions: for ED50 Compound/ED50 Paclitaxel: ratio of tubulin polymerization ED50 values; for EC50: tubulin polymerization, 37° C. 30 minutes, percent of maximum assembly at 25 μM paclitaxel. As for the experimental part:
In this tubulin binding assay, microtubule protein (MTP) is used as a substrate. The assay contains bovine tubulin plus microtubule associated proteins (MAP). MTP is polymerized into microtubules in the presence of DAPI (4′,6′-diamidino-2-phenylindole), a fluorescent compound. DAPI binds to tubulin; when microtubules are formed and there is an enhancement of fluorescence. The microtubule formation is measured as a function of time, using a fluorescence plate reader. […] The method used is based on the procedure published by Donna M. Barron, et al, “Fluorescence-based high-throughput assay for antimicrotuble drugs” Analytical Biochemistry, 315: 49-56, 2003, which is incorporated by reference in its entirety. The excitation wavelength, in that assay, was set at 370 nm and the emission wavelength was set at 450 nm for the DAPI experiments.
A Bio-Tek FL 600 microplate Fluorescence Reader was used to measure the relative level of fluorescence in the DAPI assay.
Assays were conducted in 96-well plates. […] The final DMSO concentration was 4%. The plates were incubated at 37° C. for 30 minutes and read in a fluorescence plate reader using an excitation wavelength of 360 nm and an emission wavelength of 460 nm. Fluorescence values were corrected for the sample without compound. […] Experiments were done twice in triplicate. Results were subsequently combined and fit to a non-linear regression program.

The subject of data set [2] is human U251 (glioblastoma) CNS tumor cells. The text has this: Tumor Model: Each animal was implanted with one million U251 human CNS tumor cells from an in vitro cell line by ic injection with a 25 gauge needle. The day of tumor implantation (May 24, 2006) was designated as day 0. A sufficient number of mice were implanted so that animals with body weights in a range as narrow as possible were selected for the trial on the day of treatment initiation (day 1 after tumor implantation). Animals were randomly assigned to the treatment groups and individually identified by earmark codes.
A portion of this solution was then diluted with the complete vehicle to achieve the lower dosing concentration of 1.2 mg/mL. […] Temozolomide (Temodar, Schering Corporation) was prepared on each day of injection in Klucel+tween 80 at a concentration of 4 mg/mL. Temozolomide was administered within 5 minutes of formulation on the basis of exact body weight using a volume of 0.2 mL/10 g of body weight.
Data Collection: Animal health surveillance was conducted and mortality data were collected daily. The animals were weighed twice weekly starting with the first day of treatment.
Study Duration: The study was terminated 100 days after tumor implantation. Any animal found moribund or whose body weight dropped below 14 g was euthanized prior to study termination.
Parameters Evaluated: Number of 100-day survivors, median day of death, and the increase in lifespan based on median day of death and expressed as a percentage (% ILS), median survival time and the % ILS based on median survival time.
Administration of the Ringer's solution was initiated when animal body weights dropped by greater than 10% and continued until the animal recovered, died, or was euthanized.

The mark [3] stands for this setting: temozolomide 80 mg/kg/dose po q4d×3.

What is called EC50 is the concentration at which the effect is half-maximal. In the case of `CC(=O)O[C@@]12CO[C@@H]1C[C@H](O)[C@@]1(C)C(=O)[C@H](O)C3=C(C)[C@@H](OC(=O)[C@H](O)[C@@H](NC(=O)OC(C)(C)C)c4ccccc4)C[C@@](O)([C@@H](OC(=O)c4ccccc4)[C@H]21)C3(C)C` [Docetaxel, docetaxel], in data set [1], the “ED50 Compound/ED50 Paclitaxel” value was 1.07 and the EC50 was 3.18 ± 0.45 µM.
For `C/C(=C\c1csc(C)n1)[C@@H]1C[C@@H]2O[C@]2(C)CCC[C@H](C)[C@H](O)[C@@H](C)C(=O)C(C)(C)[C@@H](O)CC(=O)O1` [Epothilone B], in data set [1], the “ED50 Compound/ED50 Paclitaxel” value was determined as 1.11 and the EC50 came to 3.31 ± 0.51 µM.
A word on the ILS: it is the gain in survival time of treated over control animals, in per cent. On to `Cn1nnc2c(C(N)=O)ncn2c1=O` [Temozolomide, reference compound], for which the ILS in data set [2] (Group 4: TMZ 80 mg/kg, po. QD1, 5, 9) was determined as 380%. Further, in data set [2] (setting [3]), the “loss in mean body weight” value is on record as 8% and the “treatment-related deaths (in words)” value is “without treatment-related deaths”.
